Laboratory results taken from PubChem BioAssay AID743410 (Sanford-Burnham Center for Chemical Genomics, 2014).

System: RS11846 B cell chemotaxis to 7a,25-OHC, calcein fluorescence
Assay: EBI2 antagonists in B cell chemotaxis, dose response, 7a,25-OHC, calcein fluorescence (AID 743410)

Compound `O=C(/C=C/c1ccc(Br)cc1)N1CCN(Cc2ccc(Cl)cc2)CC1` has an IC50 of 6.24 nM.
